# Patent US20070099259A1, “ELECTROCHEMICAL ASSAY FOR THE IDENTIFICATION OF MICROORGANISMS” (RAPID LABORATORY MICROSYSTEMS INC., priority 2003, published 2007)
# Where two headings read alike, the source gives them in different places.
# Key:
# Experiment in all cases: Relative respiratory activity with 22 effectors (Example 3)
# S. cerevisiae = format: cell-based, Saccharomyces cerevisiae; details: Saccharomyces cerevisiae; for activity at 10000 µM: read-out: relative %-respiratory activity; for activity at 20000 µM: effector 20 mM
# From the text: (§1) In this example, each microorganism is subjected to 22 different effector compounds in addition to control measurements. […] For each microorganism, duplicate measurements were made of 22 different effector compounds. In addition, duplicate measurements were made a control test containing no effector compound. One additional measurement was made of a control solution containing the microorganism with ferricyanide but without effector or DCIP.
# (§2) In this example, each normalized data set containing duplicate measurements for each of 22 effector compounds is referenced to the duplicate internal controls to allow batch-to-batch comparison. The obtained signals of charge per unit electrode area for the duplicate control measurements are averaged and set at 100% respiratory cycle activity. […] The data set used to generate pattern recognition plots consists of 5 replicate batches (each batch containing duplicate measurements for each of 22 effector compounds) for each cell culture (10 strains). This is used to generate a 50 (columns)×22 (rows) matrix. The matrix is imported into MATLAB (Version 6.0). Factor analysis is performed using the MATLAB Chemometric Toolbox (Version 2.3) and involves the generation of reduced eigenvectors to determine the optimal number of factors, examination of the resulting residuals plots for randomness, and the generation of scores for the first four principle components.
# E. faecalis = format: cell-based, Enterococcus faecalis; details: Enterococcus faecalis; for activity at 10000 µM: read-out: relative %-respiratory activity; for activity at 20000 µM: effector 20 mM
# From the text: as §1, §2
# E. coli JM105 = format: cell-based; details: Escherichia coli; for activity at 20000 µM: effector 20 mM
# From the text: as §1, §2
# E. coli HB101 = format: cell-based; details: Escherichia coli; for activity at 20000 µM: effector 20 mM
# From the text: as §1, §2
# E. coli B = format: cell-based; details: Escherichia coli; for activity at 10000 µM: read-out: relative %-respiratory activity; for activity at 20000 µM: effector 20 mM
# From the text: as §1, §2
# E. coli Neotype = format: cell-based; details: Escherichia coli; for activity at 10000 µM: read-out: relative %-respiratory activity; for activity at 20000 µM: effector 20 mM
# From the text: as §1, §2
# P. vulgaris ATCC6380 = format: cell-based, Proteus vulgaris; details: Proteus vulgaris; for activity at 20000 µM: effector 20 mM
# From the text: as §1, §2
# E. aerogenes ATCC13048e = format: cell-based, Enterobacter aerogenes; details: Klebsiella aerogenes, ATCC13048E; for activity at 10000 µM: read-out: relative %-respiratory activity; for activity at 20000 µM: effector 20 mM
# From the text: as §1, §2
# S. aureus ATCC6538P = format: cell-based, Staphylococcus aureus; details: Staphylococcus aureus, ATCC6538P; for activity at 10000 µM: read-out: relative %-respiratory activity; for activity at 20000 µM: effector 20 mM
# From the text: as §1, §2
# P. aeruginosa = format: cell-based, Pseudomonas aeruginosa; details: Pseudomonas aeruginosa; for activity at 10000 µM: read-out: relative %-respiratory activity; for activity at 20000 µM: effector 20 mM
# From the text: as §1, §2
# [1] = effector 10 mM, 5 μM DCIP, no effector = 100%, n = 10
# [2] = effector 10 mM, 5 μM DCIP, no effector = 100%, n = 20
# [3] = JM105, effector 10 mM, 5 μM DCIP, no effector = 100%, n = 10, read-out: relative %-respiratory activity
# [4] = HB101, effector 10 mM, 5 μM DCIP, no effector = 100%, n = 18, read-out: relative %-respiratory activity
# [5] = effector 10 mM, 5 μM DCIP, no effector = 100%, n = 26
# [6] = ATCC6380, effector 10 mM, 5 μM DCIP, no effector = 100%, n = 20, read-out: relative %-respiratory activity
# [7] = effector 10 mM, 5 μM DCIP, no effector = 100%, n = 18
# [8] = effector 5 mM, 5 μM DCIP, no effector = 100%, n = 10
# [9] = effector 5 mM, 5 μM DCIP, no effector = 100%, n = 20
# [10] = effector 5 mM, 5 μM DCIP, no effector = 100%, n = 26
# [11] = 5 μM DCIP, no effector = 100%, n = 10
# [12] = 5 μM DCIP, no effector = 100%, n = 20
# [13] = JM105, 5 μM DCIP, no effector = 100%, n = 10
# [14] = HB101, 5 μM DCIP, no effector = 100%, n = 18
# [15] = 5 μM DCIP, no effector = 100%, n = 26
# [16] = ATCC6380, 5 μM DCIP, no effector = 100%, n = 20
# [17] = 5 μM DCIP, no effector = 100%, n = 18
smiles,measurement,setting,value
OC[C@H]1O[C@@H]2O[C@H]3[C@H](O)[C@@H](O)[C@@H](O[C@H]4[C@H](O)[C@@H](O)[C@@H](O[C@H]5[C@H](O)[C@@H](O)[C@@H](O[C@H]6[C@H](O)[C@@H](O)[C@@H](O[C@H]7[C@H](O)[C@@H](O)[C@@H](O[C@H]8[C@H](O)[C@@H](O)[C@@H](O[C@H]1[C@H](O)[C@H]2O)O[C@@H]8CO)O[C@@H]7CO)O[C@@H]6CO)O[C@@H]5CO)O[C@@H]4CO)O[C@@H]3CO [Beta-cyclodextrin],activity at 10000 µM,S. cerevisiae; [1],112%
same,activity at 10000 µM,E. faecalis; [2],155%
same,activity at 10000 µM,E. coli JM105; [3],187%
same,activity at 10000 µM,E. coli HB101; [4],132%
same,activity at 10000 µM,E. coli B; [1],125%
same,activity at 10000 µM,E. coli Neotype; [5],81%
same,activity at 10000 µM,P. vulgaris ATCC6380; [6],151%
same,activity at 10000 µM,E. aerogenes ATCC13048e; [5],110%
same,activity at 10000 µM,S. aureus ATCC6538P; [2],98%
same,activity at 10000 µM,P. aeruginosa; [7],90%
NCCC[C@H](N)C(=O)O [L-ornithine],activity at 5000 µM,S. cerevisiae; [8],137%
same,activity at 5000 µM,E. faecalis; [9],138%
same,activity at 5000 µM,"E. coli JM105; JM105, effector 5 mM, 5 μM DCIP, no effector = 100%, n = 10",165%
same,activity at 5000 µM,"E. coli HB101; HB101, effector 5 mM, 5 μM DCIP, no effector = 100%, n = 18",114%
same,activity at 5000 µM,E. coli B; [8],135%
same,activity at 5000 µM,E. coli Neotype; [10],134%
same,activity at 5000 µM,"P. vulgaris ATCC6380; ATCC6380, effector 5 mM, 5 μM DCIP, no effector = 100%, n = 20",151%
same,activity at 5000 µM,E. aerogenes ATCC13048e; [10],142%
same,activity at 5000 µM,S. aureus ATCC6538P; [9],154%
same,activity at 5000 µM,"P. aeruginosa; effector 5 mM, 5 μM DCIP, no effector = 100%, n = 18",148%
O=C[C@H](O)[C@@H](O)[C@@H](O)[C@H](O)CO [D-galactose],activity at 20000 µM,S. cerevisiae; [11],143%
same,activity at 20000 µM,E. faecalis; [12],200%
same,activity at 20000 µM,E. coli JM105; [13],173%
same,activity at 20000 µM,E. coli HB101; [14],153%
same,activity at 20000 µM,E. coli B; [11],165%
same,activity at 20000 µM,E. coli Neotype; [15],155%
same,activity at 20000 µM,P. vulgaris ATCC6380; [16],341%
same,activity at 20000 µM,E. aerogenes ATCC13048e; [15],334%
same,activity at 20000 µM,S. aureus ATCC6538P; [12],195%
same,activity at 20000 µM,P. aeruginosa; [17],130%
O=C[C@@H](O)[C@H](O)[C@H](O)CO [D-arabinose],activity at 20000 µM,S. cerevisiae; [11],143%
same,activity at 20000 µM,E. faecalis; [12],139%
same,activity at 20000 µM,E. coli JM105; [13],137%
same,activity at 20000 µM,E. coli HB101; [14],107%
same,activity at 20000 µM,E. coli B; [11],118%
same,activity at 20000 µM,E. coli Neotype; [15],103%
same,activity at 20000 µM,P. vulgaris ATCC6380; [16],150%
same,activity at 20000 µM,E. aerogenes ATCC13048e; [15],106%
same,activity at 20000 µM,S. aureus ATCC6538P; [12],115%
same,activity at 20000 µM,P. aeruginosa; [17],113%
NCCCC[C@H](N)C(=O)O [L-lysine],activity at 10000 µM,S. cerevisiae,240%
same,activity at 10000 µM,E. faecalis,243%
same,activity at 10000 µM,"E. coli JM105; JM105, read-out: relative %-respiratory activity",118%
same,activity at 10000 µM,"E. coli HB101; HB101, read-out: relative %-respiratory activity",125%
same,activity at 10000 µM,E. coli B,100%
same,activity at 10000 µM,E. coli Neotype,101%
same,activity at 10000 µM,"P. vulgaris ATCC6380; ATCC6380, read-out: relative %-respiratory activity",219%
same,activity at 10000 µM,E. aerogenes ATCC13048e,125%
same,activity at 10000 µM,S. aureus ATCC6538P,159%
same,activity at 10000 µM,P. aeruginosa,186%
O=C(CO)[C@@H](O)[C@H](O)[C@H](O)CO [D-fructose],activity at 20000 µM,S. cerevisiae; [11],152%
same,activity at 20000 µM,E. faecalis; [12],463%
same,activity at 20000 µM,E. coli JM105; [13],202%
same,activity at 20000 µM,E. coli HB101; [14],202%
same,activity at 20000 µM,E. coli B; [11],147%
same,activity at 20000 µM,E. coli Neotype; [15],125%
same,activity at 20000 µM,P. vulgaris ATCC6380; [16],183%
same,activity at 20000 µM,E. aerogenes ATCC13048e; [15],275%
same,activity at 20000 µM,S. aureus ATCC6538P; [12],289%
same,activity at 20000 µM,P. aeruginosa; [17],136%
O=C(O)CC(=O)O [Malonic acid],activity at 10000 µM,S. cerevisiae; [1],110%
same,activity at 10000 µM,E. faecalis; [2],146%
same,activity at 10000 µM,E. coli JM105; [3],160%
same,activity at 10000 µM,E. coli HB101; [4],124%
same,activity at 10000 µM,E. coli Neotype; [5],141%
same,activity at 10000 µM,P. vulgaris ATCC6380; [6],125%
same,activity at 10000 µM,E. aerogenes ATCC13048e; [5],156%
same,activity at 10000 µM,S. aureus ATCC6538P; [2],117%
same,activity at 10000 µM,P. aeruginosa; [7],125%
